Data published in PMC12078333, “Pharmacokinetic evaluation and bioavailability of KPT-335 (Verdinexor) in cats” (Frontiers in Veterinary Science, 2025).
Values joined by “and” are separate entries in the source; they are usually repeats but may differ in a detail not shown here. Identical values can stand only once. Like-named read-outs stand apart in the source and are kept apart here.

Assay: Pharmacokinetics study of KPT-335 in cats (i.v. injection, p.o. capsules and tablets; UPLC-MS/MS, non-compartmental analysis)
Assay type: in vivo
Conditions: for Plasma concentration: individual cats 1-6; for AUC(0-t) / Cmax: plasma
Experimental: In this study, a parallel trial design was employed, 42 adult domestic cats (21 males and 21 females), aged 1 to 2 years and weighing 2.5 ± 0.25 kg. Cats were grouped by random number, with half male and female in each group, and all cats were determined to be systemically healthy during an initial screening visit 1 week prior to the experiment. They were acclimatized to the laboratory environment for 7 days before the study commenced. During this period, they were kept in solitary cages with free access to water. Cats in the fasting group were deprived of food for 12 h prior to and 2 h following drug administration, while those in the feeding group were fed twice a day. Food and water sources were consistent throughout the trail. During and at the end of the experiment, we systematically assessed the adverse reactions by recording parameters such as body weight, behavior, and coat gloss in all test cats both before and after the trial. These observations were conducted to evaluate whether any adverse reactions occurred. All procedures were reviewed and approved by the Institutional Animal Care and Use Committee of China Agricultural University (11305-23-E-002).
The UPLC-MS/MS system utilized a UPLC 1290 (Agilent) paired with a Phenomenex Kinetex C18 column (50 mm × 2.1 mm, 2.6 μm) for separation at a flow rate of 0.3 mL/min. The chromatographic mobile phase comprised water (A) and acetonitrile (B), both containing 0.1% formic acid. The gradient elution program was as follows: from 0.5 to 2.5 min, 10 to 95% B; from 2.5 to 4.5 min, 95% B; from 4.5 to 4.6 min, 95 to 10% B; and from 4.6 to 6.0 min, 10% B. The injection volume was 2 μL.
For mass spectrometry, an Agilent 6,475-LC-TQ equipped with an electrospray ion source was used. Multiple Reaction Monitoring (MRM) was selected to quantify KPT-335 in the positive ion mode. The ion transitions monitored were m/z 443.1 → 334.0 and 443.1 → 110.1 for KPT-335, and m/z 444.1 → 334.0 for the internal standard (IS). The cone voltage and collision energy were optimized for KPT-335 and the IS individually, set at 160 V and 25 eV, respectively. The optimized parameters for the instrument included an ion source temperature of 350°C, solvent removal temperature of 320°C, capillary voltage of 3.0 kV, and a solvent gas flow rate of 300 L/h.
The method was developed based on prior research conducted in the laboratory ([16]) and validated in accordance with international guidelines ([17]). The calibration concentration range for KPT-335 spanned from 0.5 to 100 ng/mL, with a lower limit of quantification (LLOQ) set at 0.5 ng/mL. The squared correlation coefficient (R^2) values exceeded 0.999, indicating high linearity.
For sample preparation, 100 μL of plasma was mixed with 10 μL of internal standard (IS) and 900 μL of acetonitrile, followed by vortexing for 2 min. The mixture was then centrifuged at 13,400 × g at 4°C for 10 min. The supernatant was filtered through a 0.22 μm organic membrane, and the resulting sample was analyzed using UPLC-MS/MS.
Cats were divided into seven groups, with six cats in each group. In the intravenous (i.v.) group (Group 1), cats received an injection of KPT-335 at a dosage of 1 mg/kg body weight (BW), administered via a bolus through a venous infusion needle. For the oral (p.o.) administration, cats were given capsules in a fasting state at doses of 0.2 mg/kg BW (Group 2), 1 mg/kg BW (Group 3), and 2 mg/kg BW (Group 4). Additionally, tablets were administered at 1 mg/kg BW (fasting, Group 5), 1 mg/kg BW (Group 6), and 2 mg/kg BW (Group 7) in a feeding state, followed by 3 mL of water delivered with a syringe.
For the p.o. administration, blood samples of 1.5 mL were collected via the brachial cephalic vein prior to administration and at 0.167, 0.333, 0.5, 0.75, 1, 1.5, 2, 4, 6, 8, 12, 24, 32, and 48 h post-administration. […]

[1] = cats, i.v., Injection, 1 mg/kg BW
[2] = cats, p.o., Capsule, Fasting, 0.2 mg/kg BW
[3] = cats, p.o., Capsule, Fasting, 1 mg/kg BW
[4] = cats, p.o., Capsule, Fasting, 2 mg/kg BW
[5] = cats, p.o., Tablet, Fasting, 1 mg/kg BW
[6] = cats, p.o., Tablet, Feeding, 1 mg/kg BW

SMILES: O=C(/C=C\n1cnc(-c2cc(C(F)(F)F)cc(C(F)(F)F)c2)n1)NNc1ccccn1 [KPT-335]
- Plasma concentration (cats, i.v. 1 mg/kg BW, 1 h, 1 mg/kg, in ng/mL): 643.90 and 242.31 and 664.36 and 555.75 and 518.04 and 558.85
- Plasma concentration (cats, i.v. 1 mg/kg BW, 2 h, 1 mg/kg, in ng/mL): 490.02 and 194.67 and 604.45 and 427.47 and 433.50 and 495.92
- Plasma concentration (cats, i.v. 1 mg/kg BW, 4 h, 1 mg/kg, in ng/mL): 278.69 and 140.14 and 326.77 and 250.68 and 245.55 and 286.46
- Plasma concentration (cats, i.v. 1 mg/kg BW, 8 h, 1 mg/kg, in ng/mL): 92.64 and 60.90 and 157.56 and 64.79 and 88.37 and 110.98
- Plasma concentration (cats, i.v. 1 mg/kg BW, 12 h, 1 mg/kg, in ng/mL): 91.54 and 31.99 and 27.73 and 24.10 and 36.17 and 25.48
- Plasma concentration (cats, i.v. 1 mg/kg BW, 24 h, 1 mg/kg): 0.00204 µg/mL and 0.00182 µg/mL
- Plasma concentration (cats, i.v. 1 mg/kg BW, 24 h, 1 mg/kg, in ng/mL): 11.88 and 15.46 and 18.84 and 11.18
- Plasma concentration (cats, i.v. 1 mg/kg BW, 32 h, 1 mg/kg): 2.52 and 2.36 and 9.45 and 1.34 and 8.61 and BLOQ
- Plasma concentration (cats, i.v. 1 mg/kg BW, 48 h): BLOQ
- AUC_%Extrap_obs [1]: 0.83 ± 0.69%
- HL_Lambda_z [1]: 3.93 ± 0.84 h
- reduction of absolute bioavailability when dosage is increased to 2 mg/kg BW (cats, p.o.): 15–25%
- AUC_%Extrap_obs [2]: 7.53 ± 7.79%
- HL_Lambda_z [2]: 7.04 ± 3.26 h
- AUC_%Extrap_obs [3]: 0.47 ± 0.13%
- HL_Lambda_z [3]: 5.37 ± 1.01 h
- AUC_%Extrap_obs [4]: 0.75 ± 0.38%
- HL_Lambda_z [4]: 6.78 ± 0.97 h
- AUC_%Extrap_obs [5]: 0.82 ± 0.39%
- HL_Lambda_z [5]: 5.76 ± 1.16 h
- AUC_%Extrap_obs [6]: 0.92 ± 1.43%
- HL_Lambda_z [6]: 4.20 ± 1.26 h
- AUC_%Extrap_obs (cats, p.o., Tablet, Feeding, 2 mg/kg BW): 0.39 ± 0.24%
- HL_Lambda_z (cats, p.o., Tablet, Feeding, 2 mg/kg BW, 2 mg/kg): 3.54 h and 3.54 ± 0.81 h
- impact of feeding on the AUC (cats, tablet 1 mg/kg BW fasting vs feeding): minimal to no impact
- Plasma concentration (cats, tablet p.o. 1 mg/kg BW after fasting, 48 h, 1 mg/kg): BLOQ
- Plasma concentration (cats, tablet p.o. 1 mg/kg BW after feeding, 24 h, 1 mg/kg): BLOQ
- Plasma concentration (cats, tablet p.o. 1 mg/kg BW after feeding, 32 h, 1 mg/kg): BLOQ
- Plasma concentration (cats, tablet p.o. 1 mg/kg BW after feeding, 48 h, 1 mg/kg): BLOQ
- Plasma concentration (cats, tablet p.o. 2 mg/kg BW after feeding, 32 h, 2 mg/kg): BLOQ
- Plasma concentration (cats, tablet p.o. 2 mg/kg BW after feeding, 48 h): BLOQ
- AUC(0-t) (female, iv, 1 mg/kg, female cats, i.v., Injection, 1 mg/kg BW, read-out: AUClast Value females): 3.06 ± 0.193 µg·h/mL
- Cmax (female, iv, 1 mg/kg, female cats, i.v., Injection, 1 mg/kg BW, read-out: Cmax Value females): 0.886 ± 0.054 µg/mL
- AUC(0-t) (female, po, 0.2 mg/kg, female cats, p.o., Capsule, Fasting, 0.2 mg/kg BW, read-out: AUClast Value females): 0.244 ± 0.0234 µg·h/mL
- Cmax (female, po, 0.2 mg/kg, female cats, p.o., Capsule, Fasting, 0.2 mg/kg BW, read-out: Cmax Value females): 0.0311 ± 0.0112 µg/mL
- AUC(0-t) (female, po, 1 mg/kg, female cats, p.o., Capsule, Fasting, 1 mg/kg BW, read-out: AUClast Value females): 1.49 ± 0.292 µg·h/mL
- Cmax (female, po, 1 mg/kg, female cats, p.o., Capsule, Fasting, 1 mg/kg BW, read-out: Cmax Value females): 0.284 ± 0.0958 µg/mL
- AUC(0-t) (female, po, 1 mg/kg, female cats, p.o., Tablet, Fasting, 1 mg/kg BW, read-out: AUClast Value females): 2.48 ± 1.16 µg·h/mL
- Cmax (female, po, 1 mg/kg, female cats, p.o., Tablet, Fasting, 1 mg/kg BW, read-out: Cmax Value females): 0.22 ± 0.0484 µg/mL
- AUC(0-t) (female, po, 1 mg/kg, female cats, p.o., Tablet, Feeding, 1 mg/kg BW, read-out: AUClast Value females): 2.66 ± 1.87 µg·h/mL
- Cmax (female, po, 1 mg/kg, female cats, p.o., Tablet, Feeding, 1 mg/kg BW, read-out: Cmax Value females): 0.467 ± 0.139 µg/mL
- AUC(0-t) (female, po, 2 mg/kg, female cats, p.o., Capsule, Fasting, 2 mg/kg BW, read-out: AUClast Value females): 1.83 ± 0.0396 µg·h/mL
- Cmax (female, po, 2 mg/kg, female cats, p.o., Capsule, Fasting, 2 mg/kg BW, read-out: Cmax Value females): 0.233 ± 0.0524 µg/mL
- AUC(0-t) (female, po, 2 mg/kg, female cats, p.o., Tablet, Feeding, 2 mg/kg BW, read-out: AUClast Value females): 2.84 ± 1.09 µg·h/mL
- Cmax (female, po, 2 mg/kg, female cats, p.o., Tablet, Feeding, 2 mg/kg BW, read-out: Cmax Value females): 0.538 ± 0.15 µg/mL
- AUC(0-t) (male, iv, 1 mg/kg, male cats, i.v., Injection, 1 mg/kg BW, read-out: AUClast Value males): 3.29 ± 1.3 µg·h/mL
- Cmax (male, iv, 1 mg/kg, male cats, i.v., Injection, 1 mg/kg BW, read-out: Cmax Value males): 0.816 ± 0.443 µg/mL
- AUC(0-t) (male, po, 0.2 mg/kg, male cats, p.o., Capsule, Fasting, 0.2 mg/kg BW, read-out: AUClast Value males): 0.312 ± 0.241 µg·h/mL
- Cmax (male, po, 0.2 mg/kg, male cats, p.o., Capsule, Fasting, 0.2 mg/kg BW, read-out: Cmax Value males): 0.0241 ± 0.0063 µg/mL
- AUC(0-t) (male, po, 1 mg/kg, male cats, p.o., Capsule, Fasting, 1 mg/kg BW, read-out: AUClast Value males): 1.34 ± 0.704 µg·h/mL
- Cmax (male, po, 1 mg/kg, male cats, p.o., Capsule, Fasting, 1 mg/kg BW, read-out: Cmax Value males): 0.237 ± 0.0567 µg/mL
- AUC(0-t) (male, po, 1 mg/kg, male cats, p.o., Tablet, Fasting, 1 mg/kg BW, read-out: AUClast Value males): 2.34 ± 0.453 µg·h/mL
- Cmax (male, po, 1 mg/kg, male cats, p.o., Tablet, Fasting, 1 mg/kg BW, read-out: Cmax Value males): 0.307 ± 0.183 µg/mL
- AUC(0-t) (male, po, 1 mg/kg, male cats, p.o., Tablet, Feeding, 1 mg/kg BW, read-out: AUClast Value males): 1.85 ± 0.0111 µg·h/mL
- Cmax (male, po, 1 mg/kg, male cats, p.o., Tablet, Feeding, 1 mg/kg BW, read-out: Cmax Value males): 0.261 ± 0.0383 µg/mL
- AUC(0-t) (male, po, 2 mg/kg, male cats, p.o., Capsule, Fasting, 2 mg/kg BW, read-out: AUClast Value males): 1.85 ± 1.29 µg·h/mL
- Cmax (male, po, 2 mg/kg, male cats, p.o., Capsule, Fasting, 2 mg/kg BW, read-out: Cmax Value males): 0.328 ± 0.259 µg/mL
- AUC(0-t) (male, po, 2 mg/kg, male cats, p.o., Tablet, Feeding, 2 mg/kg BW, read-out: AUClast Value males): 3.16 ± 0.107 µg·h/mL
- Cmax (male, po, 2 mg/kg, male cats, p.o., Tablet, Feeding, 2 mg/kg BW, read-out: Cmax Value males): 0.58 ± 0.056 µg/mL
